Source: the supplement of paper PMC11997997

Tests used:
[1] = tested on: murine bone marrow-derived macrophages; experiment: area under cytotoxicity dose-response curve (AUC (% cytotoxicity x dose, relative)); higher = more cytotoxic; settings: duration: 6 days; dose range: 0.13-80 uM, 8 points
Summary of the method: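 Values are the area under the cytotoxicity dose–response curve, calculated with GraphPad Prism version 10. Primary murine bone marrow-derived macrophages were exposed to final concentrations of 80–0.13 μM for 6 days, and viability was read by CellTiter-Glo luminescence with normalisation to vehicle and positive control wells.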

[2] = tested on: Mycobacterium tuberculosis CDC1551 (intracellular, in murine BMDM); experiment: area under intracellular growth-inhibition dose-response curve (AUC (% inhibition x dose, relative)); higher = more potent; settings: duration: 6 days; dose range: 0.13-80 uM, 8 points
Summary of the method: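 The value is the area under the growth-inhibition dose–response curve, calculated in GraphPad Prism. Primary murine bone marrow-derived macrophages were seeded in 384-well opaque plates and, 24 h later, infected for 1 h with luciferase-expressing M. tuberculosis CDC1551 at multiplicity of infection 1. Cells were then exposed for 6 days to an 8-dose, 2.5-fold series (final 80–0.13 μM). Growth was read with the Bright-Glo luciferin assay and normalised to a reference drug control and to the lowest-concentration wells.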

SMILES: NC(=S)N/N=C1\CCOc2ccc(F)cc21
- area under cytotoxicity dose-response curve [1]: < 0
- area under intracellular growth-inhibition dose-response curve [2]: 232

SMILES: O=C(Nc1ccc(S(=O)(=O)NC2=NCCCCC2)cc1)c1cccs1
- area under cytotoxicity dose-response curve [1]: 3.27
- area under intracellular growth-inhibition dose-response curve [2]: 43.4

SMILES: O=[N+]([O-])c1[c][c]c(Sc2[c][c][c][c][n+]2[O-])c2nonc12
- area under cytotoxicity dose-response curve [1]: 119
- area under intracellular growth-inhibition dose-response curve [2]: 48.7

SMILES: C[n+]1c2ccccc2nc2ccc(NCCO)cc21.[O-][Cl+3]([O-])([O-])[O-]
- area under cytotoxicity dose-response curve [1]: < 0
- area under intracellular growth-inhibition dose-response curve [2]: 107

SMILES: C/C(=C\c1ccccc1)C(=O)NCc1ccco1
- area under cytotoxicity dose-response curve [1]: 134
- area under intracellular growth-inhibition dose-response curve [2]: 111

SMILES: CC1CCCN(C(=O)C2CCC(CNc3c(N4CCCCC4)c(=O)c3=O)CC2)C1 (stereo not given)
- area under cytotoxicity dose-response curve [1]: 8.75
- area under intracellular growth-inhibition dose-response curve [2]: 91.7

SMILES: CCC(=O)NC(=S)Nc1ccc(N2CCN(C(=O)c3ccc(Cl)cc3)CC2)cc1
- area under cytotoxicity dose-response curve [1]: 3.79
- area under intracellular growth-inhibition dose-response curve [2]: 269

SMILES: C=CCn1c(SCC(=O)NC(=O)Cc2ccccc2)nc2ccccc2c1=O
- area under cytotoxicity dose-response curve [1]: < 0
- area under intracellular growth-inhibition dose-response curve [2]: 158

SMILES: CCOc1ccc(-c2cnc(NCc3cccc4ccccc34)n2CCOC)cc1.O=C(O)C(=O)O
- area under cytotoxicity dose-response curve [1]: 23.1
- area under intracellular growth-inhibition dose-response curve [2]: 66.2

SMILES: O=C(Nc1ccn(Cc2ccccc2)n1)c1ccc2c(c1)OCO2
- area under cytotoxicity dose-response curve [1]: 62.2
- area under intracellular growth-inhibition dose-response curve [2]: 121

SMILES: CCCC(=O)NC(=S)Nc1ccc(N2CCN(C(=O)c3cccs3)CC2)cc1
- area under cytotoxicity dose-response curve [1]: < 0
- area under intracellular growth-inhibition dose-response curve [2]: 274

SMILES: CC[N+](C)(CC)CCCCOc1ccc2c(c1)C(=O)c1cc(OCCCC[N+](C)(CC)CC)ccc1-2.[I-]
- area under cytotoxicity dose-response curve [1]: 51.3
- area under intracellular growth-inhibition dose-response curve [2]: 175

SMILES: Cn1ccc(=Nc2ccc(NC(=O)c3ccc(/N=c4\ccn(C)c5ccc([N+](=O)[O-])cc45)cc3)cc2)cc1
- area under cytotoxicity dose-response curve [1]: 108
- area under intracellular growth-inhibition dose-response curve [2]: 260

SMILES: O=C(NC1CCCCC1)c1ccc([N+](=O)[O-])cc1
- area under cytotoxicity dose-response curve [1]: 15.6
- area under intracellular growth-inhibition dose-response curve [2]: 218

SMILES: Cl.N=C(NCCCCCCNC(=N)NC(=N)Nc1ccc(Cl)cc1)NC(=N)Nc1ccc(Cl)cc1
- area under cytotoxicity dose-response curve [1]: 120
- area under intracellular growth-inhibition dose-response curve [2]: 43

SMILES: COc1cccc(OCC(=O)NC2CCCCCC2)c1
- area under cytotoxicity dose-response curve [1]: 22.4
- area under intracellular growth-inhibition dose-response curve [2]: 266

SMILES: O=C(NC1CCCCCCC1)c1ccc(Br)o1
- area under cytotoxicity dose-response curve [1]: 38.5
- area under intracellular growth-inhibition dose-response curve [2]: 251

SMILES: O=C(Nc1ccc(S(=O)(=O)Nc2nccs2)cc1)c1c(F)c(F)c(F)c(F)c1F
- area under cytotoxicity dose-response curve [1]: 64.8
- area under intracellular growth-inhibition dose-response curve [2]: 82.5

SMILES: NC(=S)c1cn(C2OC(CO)C(O)C2O)c2ncnc(N)c12 (stereo not given)
- area under cytotoxicity dose-response curve [1]: 36.6
- area under intracellular growth-inhibition dose-response curve [2]: 70.2

SMILES: CCCCCCn1c(=O)c(C(=O)Nc2ncccc2C)c(O)c2ccccc21
- area under cytotoxicity dose-response curve [1]: 47.2
- area under intracellular growth-inhibition dose-response curve [2]: 237

SMILES: O=C(Nc1cccc(Cl)c1)NC1CC2CCC1C2 (stereo not given)
- area under cytotoxicity dose-response curve [1]: 31.1
- area under intracellular growth-inhibition dose-response curve [2]: 232

SMILES: CN(CC(=O)Nc1ccccc1Br)C(=O)c1ccccc1Sc1ccccc1C#N
- area under cytotoxicity dose-response curve [1]: 24.4
- area under intracellular growth-inhibition dose-response curve [2]: 45.3

SMILES: O=C(CCN1C(=O)/C(=C/c2cccs2)SC1=S)Nc1ccc(C(=O)O)c(O)c1
- area under cytotoxicity dose-response curve [1]: 68.2
- area under intracellular growth-inhibition dose-response curve [2]: 189

SMILES: Cc1c2c(nc3ccccc13)CCC(C)C2.Cl (stereo not given)
- area under cytotoxicity dose-response curve [1]: < 0
- area under intracellular growth-inhibition dose-response curve [2]: 199

SMILES: COc1ccc(C)cc1-n1nnnc1SC(C)C(=O)NC1CCCC1 (stereo not given)
- area under cytotoxicity dose-response curve [1]: < 0
- area under intracellular growth-inhibition dose-response curve [2]: 44.8

SMILES: O=C(Nc1ccc(F)cc1)NC1CCCCCCC1
- area under cytotoxicity dose-response curve [1]: 144
- area under intracellular growth-inhibition dose-response curve [2]: 182

SMILES: COc1ccccc1N1C(C)=CC(=Cc2sc3ccccc3[n+]2C)C=C1C.[I-]
- area under cytotoxicity dose-response curve [1]: 25.9
- area under intracellular growth-inhibition dose-response curve [2]: 119

SMILES: O=C(NCc1ccco1)c1cc2ccccc2o1
- area under cytotoxicity dose-response curve [1]: 135
- area under intracellular growth-inhibition dose-response curve [2]: 105

SMILES: COc1sc(SC)cc1/C=N/NC(=O)c1ccncc1
- area under cytotoxicity dose-response curve [1]: 26.8
- area under intracellular growth-inhibition dose-response curve [2]: 176

SMILES: CC(=O)Nc1ccc(/C(C)=N/NC(=O)c2ccncc2)cc1
- area under cytotoxicity dose-response curve [1]: 0.755
- area under intracellular growth-inhibition dose-response curve [2]: 250

SMILES: CCOc1ccccc1NC(=O)c1ccc2[nH]c(C)c(C)c2c1
- area under cytotoxicity dose-response curve [1]: 6.53
- area under intracellular growth-inhibition dose-response curve [2]: 192

SMILES: CC(/C=C/c1ccccc1)=N\NC(N)=S
- area under cytotoxicity dose-response curve [1]: 31.1
- area under intracellular growth-inhibition dose-response curve [2]: 266

SMILES: CCc1nnc(NS(=O)(=O)c2ccc(N/C=C3/C(=O)NC(=O)N(c4ccccc4)C3=O)cc2)s1
- area under cytotoxicity dose-response curve [1]: 38
- area under intracellular growth-inhibition dose-response curve [2]: 31

SMILES: Cc1nn(CC(=O)NC2C(=O)N3C(C(=O)O)=C(CSc4nnnn4C)CSC23)cc1Br (stereo not given)
- area under cytotoxicity dose-response curve [1]: 30.6
- area under intracellular growth-inhibition dose-response curve [2]: 236

SMILES: COc1cc(/C=N/NC(N)=S)ccc1OCc1ccc(C)cc1
- area under cytotoxicity dose-response curve [1]: 30.4
- area under intracellular growth-inhibition dose-response curve [2]: 255

SMILES: CSc1ncccc1C(=O)OCC(=O)c1ccc[nH]1
- area under cytotoxicity dose-response curve [1]: < 0
- area under intracellular growth-inhibition dose-response curve [2]: 159

SMILES: CCCOc1ccccc1OCC(=O)N1CCN(S(=O)(=O)c2ccc(Cl)cc2)CC1
- area under cytotoxicity dose-response curve [1]: 126
- area under intracellular growth-inhibition dose-response curve [2]: 48.8

SMILES: CCc1ccc(C(C)NC(=O)c2cccs2)cc1 (stereo not given)
- area under cytotoxicity dose-response curve [1]: 120
- area under intracellular growth-inhibition dose-response curve [2]: 123

SMILES: COc1ccc(-c2[nH]ncc2/C=N/NC(=O)c2ccncc2)c(OC)c1
- area under cytotoxicity dose-response curve [1]: < 0
- area under intracellular growth-inhibition dose-response curve [2]: 218

SMILES: CCCCOc1ccc(C(=O)C2=C(O)C(=O)N(CCCOC)C2c2ccncc2)cc1 (stereo not given)
- area under cytotoxicity dose-response curve [1]: 19.4
- area under intracellular growth-inhibition dose-response curve [2]: 106
